Assay [1] concerns Motorik des Magen-Darmtrakts und der ableitenden Harnwege. The experiment in a line: Stimulation of the motility of the gastrointestinal tract and the efferent urinary tract. Conditions: dose needed relative to the peptides of the invention. It is filed as in vivo, Hund.
Assay [2] shares this test system. The assay is described as above. It is filed as in vivo, Hund. Conditions: parent compound compared with analogues varied in positions A-D. On the procedure:
Die erfindungsgemässen Peptide stimulieren die Motorik des Magen-Darmtrakts und der ableitenden Harnwege beim Hund und beim Menschen. Sie steigern den Ruhetonus und die segmentale Kontraktionsaktivität des Darmes und fördern dadurch sekundär auch die Wasserresorption aus dem Darmlumen (lleum).
Die erfindungsgemässen Peptide wirken intravenös bereits in einer Dosierung von 10 ng/kg und können unbedenklich auch in höherer Dosierung angewandt werden. […] Das parasympathomimetisch wirkende Carbaminoylcholin benötigt für die gleiche Wirkung etwa eine 10 fache Dosierung. So zählen die erfindungsgemässen Peptide zu den stärksten Effektoren der Motorik des Magen-Darmtrakts und der ableitenden Harnwege. Ihre morphinähnliche Wirkung ist zwar bekannt, doch überschreiten bei der geringen erforderlichen Dosierung weder nach intravenöser, subcutaner noch intranasaler Anwendung die wirksamen Dosen die Blut-Hirn-Schranke. Sie üben deshalb in der für den erfindungsgemässen Zweck erforderlichen Menge keine Wirkungen im Zentralnervensystem aus.

As for `C[N+](C)(C)CCOC(N)=O` [Carbaminoylcholin], in assay [1], the “höhere Dosierung für ähnliche / gleiche Wirkung” value was ~10 fach.

For the molecule Enkephalin, the “Wirkung (motility stimulation, in words)” value in assay [2] was “sehr schwach wirksamen”.

The values above are taken from EP0028716B1, “Motility increasing peptides and their use” (HOECHST AKTIENGESELLSCHAFT, priority 1979, dated 1986).
